In patent US10961276B2, “Universal antivenom” (CAMRIS International, Inc., priority 2017, dated 2021):
Entries after “also recorded” stand apart in the source; their conditions may differ.

System: PLA2 of five major snake venoms in the U.S. (all major North American crotalid venoms)
Assay: Cross-species anti-PLA2 activity of phage clone
Format: biochemical
Settings: five major snake venoms in the U.S. (FIG. 4)
Protocol: Analysis of PLAz activity was conducted using the EnzChek® PLAz Assay Kit (Thermo Fisher Scientific, Waltham, Mass.). Individual phage clones were standardized to […] and diluted in log steps. Diluted phages were incubated with 4.88 μg/ml Western Cottonmouth venom for 30 minutes at RT. Fluorescence emission spectra (excitation at 485 nm, emission at 528 nm) was measured for 20 minutes at 1.0 minute intervals to monitor the reaction. PLA2 activity was determined by comparing the phage inhibited venom to uninhibited venom controls.
Originally consensus peptide for panning target was designed with ˜95% homology of all major North American crotalid PLA2. This cross-species reactivity of the selected phage clone is the best evidence for the potential development of a universal antivenom using phage display technique.

Sequence: KLIHGNGVMDEG [Ph.D.-12-7]
- cross-species anti-PLA2 activities: cross-species anti-PLA2 activity; also recorded: showed anti-PLA2 activities across all major North American crotalid venoms
